Converted amounts (≈) assume the structure as drawn.
Key:
[1] = system: A549; test: Cell viability (MTT) of pulmonary epithelial cells; type: cell-based
Experimental: (§1) MTT is the tetrazolium dye 3-(4,5-dimethylthiazol-2-yl)-2,5-diphenyltetrazolium bromide which is converted by mitochondrial reductase to its insoluble formazan. In living cells, the insoluble formazan can be dissolved by adding the detergent dimethylsulfoxide for 15 minutes. The absorption of the respective dye is measured by a plate-reader at 590 nm. For the calculation of the viability after the incubation of the test compounds a positive and a negative control is included. Hank's balanced salt solution (HBSS) is used as a negative control and the resulting absorbance value is set to 100% viability. The positive control (1% Triton-X-100) is used to set 0% viability. Accordingly, the IC50 value of the test formulation can be determined by measuring a dose-response curve in log-scale.
(§2) These formulations (designated as 100%) were diluted with HBSS to give the following formulations for testing:
(§3) Cells were treated with the test formulations for 4 hours at 37° C. The viability of the cells after exposure was used to set up a dose-response curve in logarithmic scale. A sigmoidal fit enables the IC20, IC50, and IC80 calculations of the test substances.

[2] = system: Calu-3; test: Cell viability (MTT) of pulmonary epithelial cells; type: cell-based
Experimental: as §1, §2, §3

[3] = system: Mycobacterium tuberculosis H37Rv; details: standardized broth-dilution assay; cited from earlier work
[4] = system: M. avium; details: cited from earlier work
[5] = system: M. abscessus; details: cited from earlier work
[6] = system: M. abscessus; details: cited from earlier work; remark: listed apart in the source
[7] = system: M. ulcerans; details: cited from earlier work
[8] = system: M. marinum; details: cited from earlier work
[9] = system: M. smeqmatis mc2 155; details: cited from earlier work
[10] = system: M. avium; details: cited from earlier work; remark: listed apart in the source
[11] = system: M. kansasii; details: cited from earlier work
[12] = system: M. fortuitum; details: cited from earlier work
[13] = system: M. chelonae; details: cited from earlier work
[14] = system: M. maqeritense; details: cited from earlier work
[15] = system: M. phlei; details: cited from earlier work
[16] = system: M. vaccae; details: cited from earlier work
[17] = system: M. malmoense; details: cited from earlier work
[18] = system: M. qordonae; details: cited from earlier work
[19] = system: M. simiae; details: cited from earlier work
[20] = system: M. scrofulaceum; details: cited from earlier work
[21] = system: M. hiberniae; details: cited from earlier work
[22] = system: Drug-susceptible M. tuberculosis; details: cited from earlier work
[23] = system: MOR M. tuberculosis; details: cited from earlier work
[24] = in vivo, cited from earlier work
[25] = human, in vivo, 400 mg; cited from earlier work

COc1nc2ccc(Br)cc2cc1[C@@H](c1ccccc1)[C@@](O)(CCN(C)C)c1cccc2ccccc12 [bedaquiline, (1R,2S)-1-(6-bromo-2-methoxyquinolin-3-yl)-4-(dimethylamino)-2-(naphthalen-1-yl)-1-phenylbutan-2-ol]
cytotoxic effect on cell viability as compared with vehicle [1]: minimal cytotoxic effect | cytotoxic effect on cell viability as compared with vehicle [2]: minimal cytotoxic effect | MIC99 [3]: 0.015 to 0.12 µg/mL | MIC99 [4]: 0.01 to 0.03 µg/mL | MIC99 [5]: 0.25 to 0.5 µg/mL | MIC [6]: 0.25 µg/mL (≈ 0.45 µM) | MIC [7]: 0.5 µg/mL (≈ 0.9 µM) | MIC [8]: 0.003 µg/mL (≈ 0.0054 µM) | MIC [9]: 0.12 µg/mL (≈ 0.216 µM) | MIC [10]: 0.03 to 0.13 µg/mL | MIC [11]: 0.03 µg/mL (≈ 0.054 µM) | MIC [12]: 0.13 to 0.25 µg/mL | MIC [13]: 0.06 to 0.5 µg/mL | MIC [14]: 0.03 µg/mL (≈ 0.054 µM) | MIC [15]: 0.03 to 0.13 µg/mL | MIC [16]: 0.03 µg/mL (≈ 0.054 µM) | MIC [17]: 0.50 µg/mL (≈ 0.9 µM) | MIC [18]: 0.03 µg/mL (≈ 0.054 µM) | MIC [19]: 0.03 µg/mL (≈ 0.054 µM) | MIC [20]: 0.03 µg/mL (≈ 0.054 µM) | MIC [21]: 0.03 µg/mL (≈ 0.054 µM) | MIC [22]: 0.06 µg/mL (≈ 0.108 µM) | MIC [23]: 0.06 µg/mL (≈ 0.108 µM) | time to maximal plasma concentration after administration ([24]; po): 4 to 6 h | effective half-life [24]: 24 h | half life in tissues [24]: more than 5 months | terminal half life [24]: 5.5 months | Cmax in the sputum [25]: 5000 ng/mL
